According to ChEMBL document CHEMBL1909515, “Discovery of a new type inhibitor of human glyoxalase I by myricetin-based 4-point pharmacophore” (Bioorg Med Chem Lett, 2011):
Activity calls are given as the source filed them. The rule behind the calls is not given here.

Experiments:
[1] = biological target: T1, Lactoylglutathione lyase (Homo sapiens, UniProt Q04760); assay: Inhibition of human recombinant His-tagged glyoxalase 1 expressed in Escherichia coli BL21 assessed as formation of S-D-lactoylglutathione at 100 uM after 5 mins by spectrophotometric method
Target sequence in this assay (Q04760 2-184 limits assumed): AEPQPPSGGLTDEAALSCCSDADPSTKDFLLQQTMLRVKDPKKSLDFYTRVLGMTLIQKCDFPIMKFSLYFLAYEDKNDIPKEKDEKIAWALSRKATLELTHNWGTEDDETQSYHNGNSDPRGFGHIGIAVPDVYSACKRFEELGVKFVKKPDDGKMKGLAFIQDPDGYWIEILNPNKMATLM

[2] = biological target: T1, Lactoylglutathione lyase; assay: Inhibition of recombinant human His-tagged glyoxalase 1 expressed in Escherichia coli BL21 assessed as formation of S-D-lactoylglutathione after 5 mins by spectrophotometric method
Target sequence in this assay (Q04760 whole entry): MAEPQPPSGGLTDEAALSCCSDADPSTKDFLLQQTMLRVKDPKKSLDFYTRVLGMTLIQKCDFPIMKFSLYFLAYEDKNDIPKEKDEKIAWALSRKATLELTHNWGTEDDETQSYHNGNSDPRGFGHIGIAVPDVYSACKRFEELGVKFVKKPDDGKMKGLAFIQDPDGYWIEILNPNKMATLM

[3] = tested on: HL-60; assay: Antiproliferative activity against human HL60 cells at 300 uM; format: functional, cell-based
[4] = tested on: HL-60; assay: induction of apoptosis in human HL60 cells at 300 uM; format: functional, cell-based

inhibition [1] | IC50 [2] | Compound | Activity [3] | Activity [4]
Active | 54.6 µM | COc1ccc(C(=O)Nc2sc3c(c2C(=O)O)CCCC3)cc1 | – | –
Active | 93.2 µM | COc1ccc(C(=O)Nc2ccccc2C(=O)O)cc1 | – | –
Active | 2 µM | COc1ccc(/C=C(/CC(=O)O)c2nc3ccccc3s2)cc1 | Active | Active
